Assays:
[1] = healthy male volunteers, iv TCI; for subjects who lost consciousness at 75% of LOC: target 75% of individually determined LOC concentration; for subjects who lost consciousness at 100% of LOC: target 100% of individually determined LOC concentration; for subjects who lost consciousness at 125% of LOC: target 125% of individually determined LOC concentration
Protocol: Twenty volunteers (healthy, right-handed, 19 to 28 years old males) participated in this open, non-randomized study approved by the local ethics committee and the National Agency for Medicines. All subjects gave written informed consent. […] Subjects refrained from using alcohol or any medication for 48 hours before the study and they fasted overnight. No pre-medication was administered prior to study drug administration.
Subjects participated in two separate anesthesia sessions approximately one month apart. The first session was used to establish each subject's individual dose-response characteristics. The second session was used for neuroimaging. Subjects were anesthetized in a similar fashion on the two separate occasions. For each session, the subjects were prepared for the administration of a general anesthetic. In the first session, the individual concentrations for LOC were determined. Subjects were divided into two groups to receive either dexmedetomidine (n=10) or propofol (n=10) intravenous anesthesia via computer-controlled infusion. Once assigned to a particular anesthetic agent, that subject then again received that anesthetic during the neuroimaging session. Each infusion was started at a low rate and was then increased in a step-wise manner at 10 min intervals until LOC was detected. Consciousness was tested at 5 min intervals by asking the subjects to open their eyes. LOC was defined as being unresponsive to this request.
Dexmedetomidine (Precedex 100 μg/ml, Orion, 02200 Espoo, Finland) was administered intravenously using a target controlled infusion (TCI) scheme aiming at escalating pseudo steady-state plasma concentrations every 10 min. A Harvard 22 syringe pump (Harvard Apparatus, South Natick, Mass.) connected to a portable computer running […] software (Steven L. Schafer, M.D., Columbia University Medical Center, 622 W 168th St, PH 5-505 New York, N.Y. 10032-3725, USA) and the pharmacokinetic parameters of Talke were used (P. Talke et al., Anesthesiology 99, 65 (2003)). In the first session, the infusion was started at a target (plasma) concentration of 1.0 ng/ml, followed first by a 0.5 ng/ml target concentration increase and then by subsequent 0.25 ng/ml increases thereafter (i.e. 1.0-1.5-1.75-2.0-2.25-etc. ng/ml) until LOC was achieved.
Propofol (Propofol Lipuro 10 mg/ml, B. Braun Melsungen AG, Pfieffewiesen, D-34212 Melsungen, Germany) was administrated with the same infusion system and scheme as dexmedetomidine, using the Marsh pharmacokinetic model (B. Marsh et al., Br J Anaesth 67, 412 (1991)). In the first session, the infusion was started at a target (plasma) concentration of 1.0 μg/ml, followed first by a 0.5 μg/ml target concentration increase and then subsequent 0.25 μg/ml increases thereafter (i.e. 1.0-1.5-1.75-2.0-2.25-etc. μg/ml) until LOC was achieved.
In the second (neuroimaging) session of the study, the computer controlled drug infusion was repeated for each subject by aiming at their individually determined drug concentrations 50, 75 and 100% of the LOC concentration. Consciousness was tested similarly to the first session. If the LOC concentration defined in the first session of the study was not sufficient to produce LOC in the second session, the drug infusion was continued and an additional 25% target concentration increment was added to the rate. Concentrations were adjusted at 10 min intervals with simultaneous imaging at each level until LOC was detected.

[2] = after LOC, continuous infusion of the drug
Protocol: After LOC was reached and neuroimaging completed at that level of anesthesia, those in the propofol infusion group had the infusion terminated and the subjects were allowed to emerge from anesthesia. During the emergence process, consciousness was tested at 1 min intervals until ROC was detected. ROC was defined as eye opening in response to the command to do so. […] PET measurements were thus obtained during the four conditions: baseline, sedation, LOC and ROC for 17 subjects.

| Compound | subjects who lost consciousness at 50% of the previously measured LOC concentration value ([1]; target 50% of individually determined LOC concentration) | subjects who lost consciousness at 75% of LOC [1] | subjects who lost consciousness at 100% of LOC [1] | subjects who lost consciousness at 125% of LOC [1] | restoration of consciousness by stimulation during drug infusion [2] |
| --- | --- | --- | --- | --- | --- |
| Cc1cccc([C@H](C)c2cnc[nH]2)c1C [dexmedetomidine, Dexmedetomidine] | 1 | 1 | 3 | 5 | gentle tactile stimulation and/or loud voice was sufficient to restore consciousness |
| CC(C)c1cccc(C(C)C)c1O [propofol, Propofol] | – | 2 | 6 | 1 | – |

From patent publication US20120083647A1, “METHOD FOR CHANGING AN INDIVIDUAL'S STATE OF CONSCIOUSNESS” (priority 2010, published 2012)
